Source: the Kinase Knowledgebase extract (Sharma et al. 2016)

target: PIK3CD (Human) (UniProt O00329); assay: Assessment of PIK3CD Kinase Activity (Scintillation Proximity Assay)
Sequence (O00329 whole entry, looked up): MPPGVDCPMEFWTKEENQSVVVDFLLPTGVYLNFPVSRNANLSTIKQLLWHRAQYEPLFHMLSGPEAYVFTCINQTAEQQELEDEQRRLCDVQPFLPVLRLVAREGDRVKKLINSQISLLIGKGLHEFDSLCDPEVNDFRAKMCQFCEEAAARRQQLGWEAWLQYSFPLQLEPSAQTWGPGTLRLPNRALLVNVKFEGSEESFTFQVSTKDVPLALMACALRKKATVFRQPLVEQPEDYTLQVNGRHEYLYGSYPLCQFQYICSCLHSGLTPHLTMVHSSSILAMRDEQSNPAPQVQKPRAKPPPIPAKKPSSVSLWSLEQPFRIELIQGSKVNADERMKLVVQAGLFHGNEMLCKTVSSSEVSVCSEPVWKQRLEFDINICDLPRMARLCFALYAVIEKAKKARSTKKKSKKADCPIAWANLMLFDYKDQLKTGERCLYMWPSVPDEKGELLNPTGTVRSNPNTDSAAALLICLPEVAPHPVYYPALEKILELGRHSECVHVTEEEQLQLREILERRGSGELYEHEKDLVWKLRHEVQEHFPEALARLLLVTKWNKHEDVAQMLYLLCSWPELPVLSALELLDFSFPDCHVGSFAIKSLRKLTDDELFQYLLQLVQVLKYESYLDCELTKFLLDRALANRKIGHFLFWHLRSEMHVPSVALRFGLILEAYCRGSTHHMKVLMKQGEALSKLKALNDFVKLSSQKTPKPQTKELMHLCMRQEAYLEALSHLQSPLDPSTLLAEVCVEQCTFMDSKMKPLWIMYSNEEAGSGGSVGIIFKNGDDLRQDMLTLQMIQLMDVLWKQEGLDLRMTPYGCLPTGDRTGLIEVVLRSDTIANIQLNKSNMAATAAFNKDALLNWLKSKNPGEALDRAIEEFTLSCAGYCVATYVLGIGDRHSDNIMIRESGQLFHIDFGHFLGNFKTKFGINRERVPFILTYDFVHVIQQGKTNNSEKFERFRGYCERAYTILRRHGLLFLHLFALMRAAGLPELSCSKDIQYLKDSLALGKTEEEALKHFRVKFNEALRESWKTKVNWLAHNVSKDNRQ

`CCOc1c(C(C)n2nc(C)c3c(N)ncnc32)cc(Cl)c(F)c1C1CN(C[C@H](C)O)C1` (stereo partly drawn) and `CCOc1c(C(C)n2nc(C)c3c(N)ncnc32)cc(Cl)c(F)c1C1CN(C[C@@H](C)O)C1` (stereo partly drawn) cannot be ordered by IC50: no more than 10 nM for the first, no more than 10 nM for the second.

`COc1c(C(C)n2nc(C)c3c(N)ncnc32)cc(Cl)c(C)c1C1CN(C2CCOC2)C1` (stereo not drawn) and `COc1c(C(C)n2nc(C)c3c(N)ncnc32)cc(Cl)c(C)c1C1CN(C2CCOCC2)C1` (stereo not drawn) cannot be ordered by IC50: no more than 10 nM for the first, no more than 10 nM for the second.

`COc1c(C(C)n2nc(C)c3c(N)ncnc32)cc(Cl)c(C)c1C1CN(CCO)C1` (stereo not drawn) and `COc1c(C(C)n2nc(C)c3c(N)ncnc32)cc(Cl)c(C)c1C1CN(C[C@H](C)O)C1` (stereo partly drawn) cannot be ordered by IC50: no more than 10 nM for the first, no more than 10 nM for the second.

`CCOc1c(C(C)n2nc(C)c3c(N)ncnc32)cc(Cl)c(F)c1C1CN(C)C1` (stereo not drawn) and `CCOc1c(C(C)n2nc(C(F)F)c3c(N)ncnc32)cc(Cl)c(F)c1C1CN(C)C1` (stereo not drawn) cannot be ordered by IC50: no more than 10 nM for the first, no more than 10 nM for the second.

`COc1c(C(C)n2nc(C)c3c(N)ncnc32)cc(Cl)c(C)c1C1CN(CC(C)(C)O)C1` (stereo not drawn) and `COc1c(C(C)n2nc(C)c3c(N)ncnc32)cc(Cl)c(C)c1C1CN(CC(C)C)C1` (stereo not drawn) cannot be ordered by IC50: no more than 10 nM for the first, no more than 10 nM for the second.

`COc1c(C(C)n2nc(C(F)F)c3c(N)ncnc32)cc(Cl)c(F)c1C1CN(C)C1` (stereo not drawn) and `COc1c(C(C)n2nc(C(F)F)c3c(N)ncnc32)cc(C#N)c(C)c1C1CN(CCO)C1` (stereo not drawn) cannot be ordered by IC50: no more than 10 nM for the first, no more than 10 nM for the second.

`CCOc1c(C(C)n2nc(C)c3c(N)ncnc32)cc(Cl)c(C#N)c1C1CN(C(C)(C)C(=O)OC(C)(C)C)C1` (stereo not drawn) and `CCOc1c(C(C)n2nc(C)c3c(N)ncnc32)cc(Cl)c(C#N)c1C1CN(C(=O)C(C)(C)C)C1` (stereo not drawn) cannot be ordered by IC50: no more than 10 nM for the first, no more than 10 nM for the second.

`CCN1CC(c2c(C#N)c(Cl)cc(C(C)n3nc(C)c4c(N)ncnc43)c2OC)C1` (stereo not drawn) and `COc1c(C(C)n2nc(C)c3c(N)ncnc32)cc(Cl)c(C#N)c1C1CN(C[C@H](C)O)C1` (stereo partly drawn) cannot be ordered by IC50: no more than 10 nM for the first, no more than 10 nM for the second.

`CCOc1c(C(C)n2nc(C(F)F)c3c(N)ncnc32)cc(Cl)c(C)c1-c1ccc(C(=O)N(C)C)nc1` (stereo not drawn) and `Cc1c(Cl)cc(C(C)n2nc(C)c3c(N)ncnc32)c(OCC(F)F)c1-c1ccc(C(=O)N(C)C)nc1` (stereo not drawn) cannot be ordered by IC50: no more than 10 nM for the first, no more than 10 nM for the second.

`CCOc1c(C(C)n2nc(C)c3c(N)ncnc32)cc(Cl)c(C#N)c1C1CN(C2CCC2)C1` (stereo not drawn) and `CCOc1c(C(C)n2nc(C)c3c(N)ncnc32)cc(Cl)c(C#N)c1C1CN(C2CCOCC2)C1` (stereo not drawn) cannot be ordered by IC50: no more than 10 nM for the first, no more than 10 nM for the second.

`CCOc1c(C(C)n2nc(C)c3c(N)ncnc32)cc(Cl)c(C#N)c1N1CC(OC)C1` (stereo not drawn) and `CCOc1c(C(C)n2nc(C)c3c(N)ncnc32)cc(Cl)c(C)c1C#N` (stereo not drawn) cannot be ordered by IC50: no more than 10 nM for the first, no more than 10 nM for the second.

`CCOc1c(C(C)n2nc(C)c3c(N)ncnc32)cc(Cl)c(C#N)c1C1CN(C[C@H](C)O)C1` (stereo partly drawn) and `CCOc1c(C(C)n2nc(C)c3c(N)ncnc32)cc(Cl)c(C#N)c1C1CN(C[C@@H](C)O)C1` (stereo partly drawn) cannot be ordered by IC50: no more than 10 nM for the first, no more than 10 nM for the second.

First: CCOc1c(C(C)n2nc(C#C[C@@H](C)O)c3c(N)ncnc32)cc(Cl)c(C)c1-c1ccc(C(=O)N(C)C)nc1 (stereo partly drawn)
Second: CCOc1c(C(C)n2nc(CN(C)C)c3c(N)ncnc32)cc(Cl)c(C)c1-c1ccc(C(=O)N(C)C)nc1 (stereo not drawn)
The IC50 of the first is lower: no more than 10 nM for the first, 50 to 200 nM for the second.

`COc1c(C(C)n2nc(C)c3c(N)ncnc32)cc(Cl)c(C)c1-c1ccc(NCCO)nc1` (stereo not drawn) and `COc1c(C(C)n2nc(C)c3c(N)ncnc32)cc(Cl)c(C)c1-c1ccc(C(=O)N(C)CCO)nc1` (stereo not drawn) cannot be ordered by IC50: no more than 10 nM for the first, no more than 10 nM for the second.

`COc1c(C(C)n2nc(C)c3c(N)ncnc32)cc(Cl)c(C)c1C1CN(CC(C)C#N)C1` (stereo not drawn) and `COc1c(C(C)n2nc(C)c3c(N)ncnc32)cc(Cl)c(C)c1C1CN(CC(O)C(F)(F)F)C1` (stereo not drawn) cannot be ordered by IC50: no more than 10 nM for the first, no more than 10 nM for the second.

`CNC(=O)c1ccc(-c2c(C)c(Cl)cc(C(C)n3ccc(=O)c4c(N)ncnc43)c2OC)cn1` (stereo not drawn) and `COc1c(C(C)n2cc(C)c3c(N)ncnc32)cc(Cl)c(C)c1-c1ccc(C(=O)N(C)C)nc1` (stereo not drawn) cannot be ordered by IC50: no more than 10 nM for the first, no more than 10 nM for the second.

`CCOc1c(C(C)n2nc(-c3cncc(C(=O)N(C)C)c3)c3c(N)ncnc32)cc(Cl)c(C)c1-c1ccc(C(=O)N(C)C)nc1` (stereo not drawn) and `CCOc1c(C(C)n2nc(-c3cncc(C#N)c3)c3c(N)ncnc32)cc(Cl)c(C)c1-c1ccc(C(=O)N(C)C)nc1` (stereo not drawn) cannot be ordered by IC50: no more than 10 nM for the first, no more than 10 nM for the second.

`CCOc1c(C(C)n2nc(C)c3c(N)ncnc32)cc(Cl)c(F)c1C1CN(CC(C)(C)O)C1` (stereo not drawn) and `CCOc1c(C(C)n2nc(C)c3c(N)ncnc32)cc(Cl)c(F)c1C1CNC(=O)C1` (stereo not drawn) cannot be ordered by IC50: no more than 10 nM for the first, no more than 10 nM for the second.

`CCOc1c(C(C)n2ccc(=O)c3c(N)ncnc32)cc(Cl)c(C#N)c1-c1ccc(C(=O)N(C)C)nc1` (stereo not drawn) and `CCOc1c(C(C)n2nc(C)c3c(N)ncnc32)cc(Cl)c(C#N)c1-c1ccc(C(=O)N(C)C)nc1` (stereo not drawn) cannot be ordered by IC50: no more than 10 nM for the first, no more than 10 nM for the second.

`CCOc1c(C(C)n2nc(C)c3c(N)ncnc32)cc(C)c(C#N)c1-c1cnn(C)c1` (stereo not drawn) and `CCOc1c(C(C)n2nc(C)c3c(N)ncnc32)cc(Cl)c(C)c1-c1cnn(C)c1` (stereo not drawn) cannot be ordered by IC50: no more than 10 nM for the first, no more than 10 nM for the second.

`COc1c(C(C)n2nc(C)c3c(N)ncnc32)cc(Cl)c(C)c1C1CN([C@@H](C)C(O)N(C)C)C1` (stereo partly drawn) and `CCOc1c(C(C)n2nc(C)c3c(N)ncnc32)cc(Cl)c(C)c1C1CN(C(=O)[C@H](C)O)C1` (stereo partly drawn) cannot be ordered by IC50: no more than 10 nM for the first, no more than 10 nM for the second.

`CCOc1c(C(C)n2cc(C)c3c(N)ncnc32)cc(Cl)c(C#N)c1C1CN(CCO)C1` (stereo not drawn) and `CCOc1c(C(C)n2nc(C)c3c(N)ncnc32)cc(Cl)c(C#N)c1C1CN(C(=O)C(C)C)C1` (stereo not drawn) cannot be ordered by IC50: no more than 10 nM for the first, no more than 10 nM for the second.

`COc1c(C(C)n2cc(-c3cn[nH]c3)c(=O)c3c(N)ncnc32)cc(Cl)c(C)c1-c1ccc(C(=O)N(C)C)nc1` (stereo not drawn) and `COc1c(C(C)n2nc(C)c3c(N)ncnc32)cc(Cl)c(C)c1-c1ccc(C(=O)N(C)C)nc1` (stereo not drawn) cannot be ordered by IC50: no more than 10 nM for the first, no more than 10 nM for the second.

`COc1c(C(C)n2nc(C)c3c(N)ncnc32)cc(C#N)c(C)c1-c1cnn(C)c1` (stereo not drawn) and `COc1c(C(C)n2nc(C)c3c(N)ncnc32)cc(Cl)c(C)c1C1CN(C(=O)c2cnn(C)c2)C1` (stereo not drawn) cannot be ordered by IC50: 10 to 50 nM for the first, no more than 10 nM for the second.

`COc1c(C(C)n2nc(C)c3c(N)ncnc32)cc(Cl)c(C#N)c1C1CN(S(C)(=O)=O)C1` (stereo not drawn) and `CCC(=O)N1CC(c2c(C#N)c(Cl)cc(C(C)n3nc(C)c4c(N)ncnc43)c2OC)C1` (stereo not drawn) cannot be ordered by IC50: no more than 10 nM for the first, no more than 10 nM for the second.

`CCOc1c(C(C)n2nc(C)c3c(N)ncnc32)cc(C)c(C#N)c1N1CCCC1` (stereo not drawn) and `CCNC(=O)N1CC(c2c(C#N)c(Cl)cc(C(C)n3nc(C)c4c(N)ncnc43)c2OC)C1` (stereo not drawn) cannot be ordered by IC50: no more than 10 nM for the first, no more than 10 nM for the second.

`COc1c(C(C)n2nc(C)c3c(N)ncnc32)cc(Cl)c(C#N)c1C1CN(CC2CCOC2)C1` (stereo not drawn) and `CCOc1c(C(C)n2nc(C)c3c(N)ncnc32)cc(Cl)c(C#N)c1-c1cncc(C#N)c1` (stereo not drawn) cannot be ordered by IC50: no more than 10 nM for the first, no more than 10 nM for the second.

`CCOc1c(C(C)n2nc(C)c3c(N)ncnc32)cc(Cl)c(C)c1-c1ccc(C(=O)NC)nc1` (stereo not drawn) and `CCOc1c(C(C)n2nc(C)c3c(N)ncnc32)cc(Cl)c(C)c1-c1cnn(CC(=O)NC)c1` (stereo not drawn) cannot be ordered by IC50: no more than 10 nM for the first, no more than 10 nM for the second.

`COc1c(C(C)n2nc(C)c3c(N)ncnc32)cc(Cl)c(C)c1-c1ccnc(C(=O)N(C)CCO)c1` (stereo not drawn) and `COc1c(C(C)n2nc(C)c3c(N)ncnc32)cc(Cl)c(C)c1-c1cncc(C(=O)N(C)CCN)c1` (stereo not drawn) cannot be ordered by IC50: no more than 10 nM for the first, no more than 10 nM for the second.

`COc1c(C(C)n2nc(C)c3c(N)ncnc32)cc(Cl)c(C)c1-c1ccc(N(C)C)nc1` (stereo not drawn) and `CCOc1c(C(C)n2nc(C)c3c(N)ncnc32)cc(Cl)c(C)c1-c1ccc(C(=O)N(C)C)cn1` (stereo not drawn) cannot be ordered by IC50: no more than 10 nM for the first, no more than 10 nM for the second.

`CCOc1c(C(C)n2nc(C)c3c(N)ncnc32)cc(Cl)c(C)c1-c1cnn(CC(N)=O)c1` (stereo not drawn) and `CCNC(=O)c1c(C)c(Cl)cc(C(C)n2nc(C)c3c(N)ncnc32)c1-c1cc(F)cc(F)c1` (stereo not drawn) cannot be ordered by IC50: no more than 10 nM for the first, no more than 10 nM for the second.

Work on `CCOc1c(C(C)n2nc(C)c3c(N)ncnc32)cc(Cl)c(C#N)c1-c1cncc(-c2ncco2)c1` (stereo not drawn) yielded an IC50 of no more than 10 nM.
